Experimental data reported in patent US20110054028A1, “SUPPLEMENT FOR REDUCING HIV TR[…] METHOD THEREOF” (priority 2009, published 2011).

Test system: HIV-1 (NL4-3) viral release in HeLa cells
Test: HIV-1 viral release in HeLa cells transfected with NL4-3 (p24 antigen assay)
Assay type: cell-based
Details: HeLa cells expressing NL4-3
Experimental: HeLa cells at 50% confluency in P25 flasks were transiently transfected with 2-3 μg of one of the HIV-1 proviral constructs (pNL4-3; pNL4-3/Udel). One-tenth of the culture media was retrieved from each sample and filtered through a 0.22-μm syringe filter at each time point. Cells were collected at the end and subjected to whole-cell lysis by 1% SDS. The viral content in culture media and in cell lysates was determined by Coulter HIV-1 p24 Antigen Assay kit. Virus release was compared to that from the control (co-transfection of pNL4-3 and pCGI). Data are expressed as mean±SEM from 8 independent experiments.
For the inhibitory effects of K2P channel, different quantities (0.02-10 μM) of arachidonic acid (Sigma) were tested in HeLa cell culture at the 24th hour post-transfection of NL4-3, and one-tenth of the media was retrieved and filtered at each time point. Viral release was compared to that of the untreated HeLa cell set at 100% (control).
Referring to FIG. 3, the inhibitory effects of HIV-1 viral release in HeLa cells at the 4th hour after arachidonic acid (AA) supplementation were shown. […] Moreover, 50-60% of the release inhibition could be achieved by AA at 0.5×10^−7˜10^−6 M.

CCCCC/C=C\C/C=C\C/C=C\C/C=C\CCCC(=O)O [AA, arachidonic acid]
release inhibition (HIV-1 viral release) (4th hour after AA supplementation, AA at 0.5×10^−7˜10^−6 M, untreated HeLa cell set at 100%): 50-60% | suppression of viral release (submicromolar concentrations, 4th hour after supplementation): could suppress viral release
